Laboratory results published in patent US20230364070A1, “PYRROLO[3,2-C]PYRIDIN-4-ONE DERIVATIVES USEFUL IN THE TREATMENT OF CANCER” (Scorpion Therapeutics, Inc., priority 2020, published 2023).

Tests used:
Format in all cases: cell-based
[1] = target: T1, pEGFR in Ba/F3 cells expressing EGFR exon 20 NPG Ins D770_N771 (Homo sapiens, UniProt P00533, INS770NPG); assay: Inhibitor activity on EGFR phosphorylation (pEGFR AlphaLISA, 2 h), Ba/F3 EGFR exon 20 NPG insertion; conditions: Ba/F3 EGFR exon 20 NPG Ins D770_N771
T1 construct: expressed in transfected cells; host or cells: Ba/F3 (murine pro-B cells), retroviral transduction, puromycin selection, IL3-independent pool
T1 sequence (P00533 with tags, fused parts or gaps INS770NPG): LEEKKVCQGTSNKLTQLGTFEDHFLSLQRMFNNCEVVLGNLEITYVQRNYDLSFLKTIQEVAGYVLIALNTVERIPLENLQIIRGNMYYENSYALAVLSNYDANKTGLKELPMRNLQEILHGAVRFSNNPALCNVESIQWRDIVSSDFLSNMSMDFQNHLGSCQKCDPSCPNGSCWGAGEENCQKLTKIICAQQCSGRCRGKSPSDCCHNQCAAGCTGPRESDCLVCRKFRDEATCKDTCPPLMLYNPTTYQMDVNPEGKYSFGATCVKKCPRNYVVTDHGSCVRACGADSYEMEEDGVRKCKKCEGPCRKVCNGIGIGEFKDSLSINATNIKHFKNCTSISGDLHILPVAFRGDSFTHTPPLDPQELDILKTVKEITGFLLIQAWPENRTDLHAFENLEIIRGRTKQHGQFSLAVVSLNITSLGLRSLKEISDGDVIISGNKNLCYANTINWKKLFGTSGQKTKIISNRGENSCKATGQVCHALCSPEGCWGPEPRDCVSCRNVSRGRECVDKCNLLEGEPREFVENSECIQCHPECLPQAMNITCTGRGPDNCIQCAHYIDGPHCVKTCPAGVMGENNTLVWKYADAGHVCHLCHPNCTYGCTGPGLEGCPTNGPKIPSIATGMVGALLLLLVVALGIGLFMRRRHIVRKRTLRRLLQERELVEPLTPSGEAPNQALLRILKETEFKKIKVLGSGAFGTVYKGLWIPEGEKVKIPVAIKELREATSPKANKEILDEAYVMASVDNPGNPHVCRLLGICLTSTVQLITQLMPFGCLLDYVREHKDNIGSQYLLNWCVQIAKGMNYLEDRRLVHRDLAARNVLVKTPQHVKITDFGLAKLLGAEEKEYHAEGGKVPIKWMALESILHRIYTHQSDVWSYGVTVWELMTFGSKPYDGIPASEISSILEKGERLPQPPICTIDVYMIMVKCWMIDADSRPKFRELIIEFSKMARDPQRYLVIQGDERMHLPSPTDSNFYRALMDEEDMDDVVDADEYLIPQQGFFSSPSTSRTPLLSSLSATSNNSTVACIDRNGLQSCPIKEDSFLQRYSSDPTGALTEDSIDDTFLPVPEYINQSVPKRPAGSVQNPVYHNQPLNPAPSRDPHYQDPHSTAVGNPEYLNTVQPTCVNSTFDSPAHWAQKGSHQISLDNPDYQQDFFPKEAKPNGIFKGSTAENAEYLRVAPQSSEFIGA

[2] = target: T2, Ba/F3 cells with EGFR exon 20 NPG Ins D770_N771 (Homo sapiens, UniProt P00533, INS770NPG); assay: EGFR activity: Ba/F3 cell viability (CellTiter-Glo, 72 h), EGFR exon 20 NPG insertion; conditions: EGFR exon 20 NPG Ins D770_N771, cell viability, read-out: BaF3 NPG IC50
T2 construct: expressed in transfected cells; host or cells: Ba/F3 (murine pro-B cells), retroviral transduction, puromycin selection, IL3-independent pool
T2 sequence (P00533 with tags, fused parts or gaps INS770NPG): as above

[3] = target: T3, Ba/F3 cells with EGFR exon 20 ASV Ins V769_D770 (Homo sapiens, UniProt P00533, INS769ASV); assay: EGFR activity: Ba/F3 cell viability (CellTiter-Glo, 72 h), EGFR exon 20 ASV insertion; conditions: EGFR exon 20 ASV Ins V769_D770, cell viability, read-out: BaF3 ASV IC50
T3 construct: expressed in transfected cells; host or cells: Ba/F3 (murine pro-B cells), retroviral transduction, puromycin selection, IL3-independent pool
T3 sequence (P00533 with tags, fused parts or gaps INS769ASV): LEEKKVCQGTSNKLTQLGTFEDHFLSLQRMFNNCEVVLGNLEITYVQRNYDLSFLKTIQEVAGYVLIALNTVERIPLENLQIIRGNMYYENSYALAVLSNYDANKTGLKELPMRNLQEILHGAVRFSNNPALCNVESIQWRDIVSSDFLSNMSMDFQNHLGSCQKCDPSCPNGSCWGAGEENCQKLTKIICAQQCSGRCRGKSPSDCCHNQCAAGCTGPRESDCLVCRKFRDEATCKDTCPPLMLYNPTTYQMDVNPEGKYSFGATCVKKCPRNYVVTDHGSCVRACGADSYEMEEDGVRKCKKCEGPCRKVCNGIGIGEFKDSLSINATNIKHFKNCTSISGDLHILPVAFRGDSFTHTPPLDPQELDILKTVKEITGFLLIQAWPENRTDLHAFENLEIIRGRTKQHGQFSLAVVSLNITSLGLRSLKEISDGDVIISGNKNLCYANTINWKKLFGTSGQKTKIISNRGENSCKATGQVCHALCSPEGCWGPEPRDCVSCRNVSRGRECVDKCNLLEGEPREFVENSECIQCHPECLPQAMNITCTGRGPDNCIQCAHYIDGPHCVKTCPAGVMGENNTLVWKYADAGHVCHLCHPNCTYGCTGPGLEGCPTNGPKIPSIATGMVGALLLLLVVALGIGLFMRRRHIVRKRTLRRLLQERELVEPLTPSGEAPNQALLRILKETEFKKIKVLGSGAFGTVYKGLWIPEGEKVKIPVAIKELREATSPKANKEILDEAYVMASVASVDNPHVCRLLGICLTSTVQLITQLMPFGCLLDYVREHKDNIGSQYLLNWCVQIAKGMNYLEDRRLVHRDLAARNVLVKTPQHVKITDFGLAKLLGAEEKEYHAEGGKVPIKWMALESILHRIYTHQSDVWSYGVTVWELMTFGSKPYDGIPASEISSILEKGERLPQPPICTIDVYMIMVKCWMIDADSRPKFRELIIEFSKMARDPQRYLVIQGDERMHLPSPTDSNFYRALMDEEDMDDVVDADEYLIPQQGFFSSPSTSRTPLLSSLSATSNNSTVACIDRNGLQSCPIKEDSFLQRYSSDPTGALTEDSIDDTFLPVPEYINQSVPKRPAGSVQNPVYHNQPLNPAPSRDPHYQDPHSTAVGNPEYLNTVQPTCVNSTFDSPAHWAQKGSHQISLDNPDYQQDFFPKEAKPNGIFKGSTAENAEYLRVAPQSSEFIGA

[4] = target: T4, pEGFR in Ba/F3 cells expressing EGFR exon 20 ASV Ins V769_D770 (Homo sapiens, UniProt P00533, INS769ASV); assay: Inhibitor activity on EGFR phosphorylation (pEGFR AlphaLISA, 2 h), Ba/F3 EGFR exon 20 ASV insertion; conditions: Ba/F3 EGFR exon 20 ASV Ins V769_D770
T4 construct: expressed in transfected cells; host or cells: Ba/F3 (murine pro-B cells), retroviral transduction, puromycin selection, IL3-independent pool
T4 sequence (P00533 with tags, fused parts or gaps INS769ASV): as above

[5] = target: T5, Ba/F3 cells with EGFR WT (Homo sapiens, UniProt P00533); assay: EGFR activity: Ba/F3 cell viability (CellTiter-Glo, 72 h), EGFR WT; conditions: read-out: BaF3 WT IC50
T5 construct: expressed in transfected cells; host or cells: Ba/F3 (murine pro-B cells), retroviral transduction, puromycin selection, maintained with EGF

[6] = target: T6, pEGFR in CUTO14 cells (Homo sapiens, UniProt P00533, DUP767-769); assay: Inhibitor activity on EGFR phosphorylation (pEGFR AlphaLISA, 2 h), CUTO14 cells
T6 construct: endogenous in cells; host or cells: CUTO14 cells
Protocol: CUTO14 cells were obtained from Dr. Robert C. Doebele at the University of Colorado.
Shake 350 rpm for 1 hr in the dark • 3.4 Prepare donor mix under low light conditions prior to use. Dispense 5 μL of donor mix to all the wells. Mix well on the shaker, seal and wrap in aluminum foil and incubate 1.5 hrs at room temperature in the dark • 3.5 Transfer 18.5 μL mixture to OptiPlate 384, and read using an Envision.

COc1c(F)cccc1Nc1c(-c2ccncc2OCC2CCn3ccnc32)[nH]c2c1C(=O)NCC2 (stereo not drawn) [Compound 124, 3-[(3-fluoro-2-methoxyphenyl)amino]-2-(3-[5H,6H,7H-pyrrolo[1,2-a]imidazol-7-ylmethoxy]pyridin-4-yl)-1H,5H,6H,7H-pyrrolo[3,2-c]pyridin-4-one]
IC50 [1]: < 100 nM
IC50 [2]: > 1000 nM
IC50 [3]: 100 to 1000 nM
IC50 [4]: 100 to 1000 nM
IC50 [5]: > 1000 nM

COc1c(F)cccc1Nc1c(-c2ccncc2OCc2csc3nccn23)[nH]c2c1C(=O)NCC2 [Compound 130, 3-[(3-fluoro-2-methoxyphenyl)amino]-2-(3-[imidazo[2,1-b][1,3]thiazol-3-ylmethoxy]pyridin-4-yl)-1H,5H,6H,7H-pyrrolo[3,2-c]pyridin-4-one]
IC50 [2]: > 1000 nM
IC50 [3]: > 1000 nM
IC50 [4]: > 1000 nM
IC50 [5]: > 1000 nM

COc1c(Cl)cccc1Nc1c(-c2ccncc2OC[C@H]2CCCN2S(C)(=O)=O)[nH]c2c1C(=O)NCC2 [Compound 142b, 3-[(3-chloro-2-methoxyphenyl)amino]-2-(3-[[(2R)-1-methanesulfonylpyrrolidin-2-yl]methoxy]pyridin-4-yl)-1H,5H,6H,7H-pyrrolo[3,2-c]pyridin-4-one]
IC50 [1]: < 100 nM
IC50 [2]: < 100 nM
IC50 [3]: < 100 nM
IC50 [5]: 100 to 1000 nM

COc1c(F)cccc1Nc1c(-c2ccncc2OCc2cnc3n2CCC3)[nH]c2c1C(=O)NCC2 [Compound 150, 2-(3-((6,7-dihydro-5H-pyrrolo[1,2-a]imidazol-3-yl)methoxy)pyridin-4-yl)-3-((3-fluoro-2-methoxyphenyl)amino)-1,5,6,7-tetrahydro-4H-pyrrolo[3,2-c]pyridin-4-one]
IC50 [2]: > 1000 nM
IC50 [3]: 100 to 1000 nM
IC50 [4]: < 100 nM
IC50 [5]: > 1000 nM

COc1c(Cl)cccc1Nc1c(-c2ccncc2C#CC(C)(C)OC)[nH]c2c1C(=O)NCC2 [Compound 188, 3-((3-chloro-2-methoxyphenyl)amino)-2-(3-(3-methoxy-3-methylbut-1-yn-1-yl)pyridin-4-yl)-1,5,6,7-tetrahydro-4H-pyrrolo[3,2-c]pyridin-4-one]
IC50 [1]: < 100 nM
IC50 [2]: < 100 nM
IC50 [3]: 100 to 1000 nM
IC50 [5]: < 100 nM

C=CC(=O)N1CCCC[C@@H]1COc1cnccc1-c1[nH]c2c(c1Nc1cccc(F)c1C)C(=O)NCC2 [Compound 468, 3-[(3-fluoro-2-methylphenyl)amino]-2-(3-[[(2R)-1-(prop-2-enoyl)piperidin-2-yl]methoxy]pyridin-4-yl)-1H,5H,6H,7H-pyrrolo[3,2-c]pyridin-4-one]
IC50 [1]: < 100 nM
IC50 [2]: 100 to 1000 nM
IC50 [3]: 100 to 1000 nM
IC50 [5]: 100 to 1000 nM

CCC(=O)N1CCC[C@@H]1COc1cnccc1-c1[nH]c2c(c1Nc1cccc(Cl)c1OC)C(=O)NCC2 [Compound 470, 3-[(3-chloro-2-methoxyphenyl)amino]-2-(3-[[(2R)-1-propanoylpyrrolidin-2-yl]methoxy]pyridin-4-yl)-1H,5H,6H,7H-pyrrolo[3,2-c]pyridin-4-one]
IC50 [1]: 100 to 1000 nM
IC50 [2]: > 1000 nM
IC50 [3]: > 1000 nM
IC50 [5]: > 1000 nM

COc1c(F)cccc1Nc1c(-c2ccncc2OCc2ccccn2)[nH]c2c1C(=O)NCC2 [Compound 472, 3-[(3-fluoro-2-methoxyphenyl)amino]-2-[3-(pyridin-2-ylmethoxy)pyridin-4-yl]-1H,5H,6H,7H-pyrrolo[3,2-c]pyridin-4-one]
IC50 [1]: < 100 nM
IC50 [2]: < 100 nM
IC50 [3]: < 100 nM
IC50 [5]: < 100 nM

COc1c(F)cccc1Nc1c(-c2ccncc2OCc2ncco2)[nH]c2c1C(=O)NCC2 [Compound 474, 3-[(3-fluoro-2-methoxyphenyl)amino]-2-[3-(1,3-oxazol-2-ylmethoxy)pyridin-4-yl]-1H,5H,6H,7H-pyrrolo[3,2-c]pyridin-4-one]
IC50 [2]: > 1000 nM
IC50 [3]: 100 to 1000 nM
IC50 [4]: < 100 nM
IC50 [5]: 100 to 1000 nM

COc1c(F)cccc1Nc1c(-c2ccncc2OCc2cccn3ccnc23)[nH]c2c1C(=O)NCC2 [Compound 475, 3-[(3-fluoro-2-methoxyphenyl)amino]-2-(3-[imidazo[1,2-a]pyridin-8-ylmethoxy]pyridin-4-yl)-1H,5H,6H,7H-pyrrolo[3,2-c]pyridin-4-one]
IC50 [1]: < 100 nM
IC50 [2]: 100 to 1000 nM
IC50 [3]: 100 to 1000 nM
IC50 [4]: < 100 nM
IC50 [5]: 100 to 1000 nM

COc1cccnc1COc1cnccc1-c1[nH]c2c(c1Nc1cccc(F)c1OC)C(=O)NCC2 [Compound 476, 3-[(3-fluoro-2-methoxyphenyl)amino]-2-[3-[(3-methoxypyridin-2-yl)methoxy]pyridin-4-yl]-1H,5H,6H,7H-pyrrolo[3,2-c]pyridin-4-one]
IC50 [1]: < 100 nM
IC50 [2]: < 100 nM
IC50 [3]: < 100 nM
IC50 [5]: 100 to 1000 nM

COc1c(F)cccc1Nc1c(-c2ccncc2OCc2ncc(C)cn2)[nH]c2c1C(=O)NCC2 [Compound 477, 3-[(3-fluoro-2-methoxyphenyl)amino]-2-[3-[(5-methylpyrimidin-2-yl)methoxy]pyridin-4-yl]-1H,5H,6H,7H-pyrrolo[3,2-c]pyridin-4-one]
IC50 [1]: < 100 nM
IC50 [2]: < 100 nM
IC50 [4]: < 100 nM
IC50 [5]: < 100 nM

COc1c(F)cccc1Nc1c(-c2ccncc2OCc2cn3ccccc3n2)[nH]c2c1C(=O)NCC2 [Compound 481, 3-[(3-fluoro-2-methoxyphenyl)amino]-2-(3-[imidazo[1,2-a]pyridin-2-ylmethoxy]pyridin-4-yl)-1H,5H,6H,7H-pyrrolo[3,2-c]pyridin-4-one]
IC50 [2]: > 1000 nM
IC50 [3]: < 100 nM
IC50 [4]: < 100 nM
IC50 [5]: 100 to 1000 nM

C=CC(=O)N1CCC[C@H]1COc1cnccc1-c1[nH]c2c(c1Nc1cccc(F)c1CC)C(=O)NCC2 [compound 211, 3-[(2-ethyl-3-fluorophenyl)amino]-2-(3-{[(2S)-1-(prop-2-enoyl)pyrrolidin-2-yl]methoxy}pyridin-4-yl)-1H,5H,6H,7H-pyrrolo[3,2-c] pyridin-4-one]
IC50 [1]: < 100 nM
IC50 [2]: < 100 nM
IC50 [3]: < 100 nM
IC50 [5]: < 100 nM

C=C(F)C(=O)N1CC[C@@H]1COc1cnccc1-c1[nH]c2c(c1Nc1cccc(Cl)c1OC)C(=O)NCC2 [compound 226, 3-[(3-chloro-2-methoxyphenyl)amino]-2-(3-{[(2R)-1-(2-fluoroprop-2-enoyl)azetidin-2-yl]methoxy}pyridin-4-yl)-1H,5H,6H,7H-pyrrolo[3,2-c]pyridin-4-one]
IC50 [1]: < 100 nM
IC50 [2]: < 100 nM
IC50 [3]: < 100 nM
IC50 [5]: 100 to 1000 nM

CC#CC(=O)N1CC[C@@H]1COc1cnccc1-c1[nH]c2c(c1Nc1cccc(Cl)c1OC)C(=O)NCC2 [compound 227]
IC50 [1]: < 100 nM
IC50 [6]: < 100 nM
IC50 [2]: < 100 nM
IC50 [3]: < 100 nM
IC50 [5]: 100 to 1000 nM

C=CC(=O)N1CCC[C@]1(C)C#Cc1cnccc1-c1[nH]c2c(c1Nc1cccc(F)c1OC)C(=O)NCC2 [compound 245, 3-[(3-fluoro-2-methoxyphenyl)amino]-2-(3-{2-[(2R)-2-methyl-1-(prop-2-enoyl)pyrrolidin-2-yl]ethynyl}pyridin-4-yl)-1H,5H,6H,7H-pyrrolo[3,2-c]pyridin-4-one]
IC50 [1]: < 100 nM
IC50 [6]: < 100 nM

C=CC(=O)NC(C)(C)C#Cc1cnccc1-c1[nH]c2c(c1Nc1cccc(F)c1OC)C(=O)NCC2 [compound 258, N-[4-(4-{3-[(3-fluoro-2-methoxyphenyl)amino]-4-oxo-1H,5H,6H,7H-pyrrolo[3,2-c]pyridin-2-yl}pyridin-3-yl)-2-methylbut-3-yn-2-yl]prop-2-enamide]
IC50 [1]: < 100 nM
IC50 [6]: < 100 nM

COc1c(Cl)cccc1Nc1c(-c2ccncc2C#CC2CC2)[nH]c2c1C(=O)NCC2 [compound 488]
IC50 [2]: < 100 nM
IC50 [3]: < 100 nM
IC50 [4]: < 100 nM
IC50 [5]: 100 to 1000 nM

COc1c(Cl)cccc1Nc1c(-c2ccncc2C#CC2(C)COC2)[nH]c2c1C(=O)NCC2 [compound 490]
IC50 [3]: 100 to 1000 nM
IC50 [4]: < 100 nM
IC50 [5]: > 1000 nM

C=CC(=O)NC(C)(C)C#Cc1cnccc1-c1[nH]c2c(c1Nc1cccc(Cl)c1OC)C(=O)NCC2 [compound 492, N-[4-(4-{3-[(3-chloro-2-methoxyphenyl)amino]-4-oxo-1H,5H,6H,7H-pyrrolo[3,2-c]pyridin-2-yl}pyridin-3-yl)-2-methylbut-3-yn-2-yl]prop-2-enamide]
IC50 [1]: < 100 nM
IC50 [6]: < 100 nM

COc1c(Cl)cccc1Nc1c(-c2ccncc2C#C[C@@H]2CN(C)CCO2)[nH]c2c1C(=O)NCC2 [compound 496]
IC50 [1]: < 100 nM
IC50 [2]: < 100 nM
IC50 [3]: < 100 nM
IC50 [5]: > 1000 nM
